Test results as given in patent EP4194453A1, “PYRAZINE COMPOUNDS FOR THE CONTROL OF INVERTEBRATE PESTS” (BASF SE, priority 2021, dated 2023).

How the values were obtained:
Type in all cases: in vivo
[1] = test system: Southern armyworm (Spodoptera eridania), 2nd instar larvae; experiment: Southern armyworm foliar spray test on lima bean plants; conditions: 96 h, 4 days after treatment, in comparison with untreated controls
Experimental: The active compounds were formulated by a Tecan liquid handler in 100% cyclohexanone as a 10,000 ppm solution supplied in tubes. The 10,000 ppm solution was serially diluted in 100% cyclohexanone to make interim solutions. These served as stock solutions for which final dilutions were made by the Tecan in 50% acetone:50% water (v/v) into 10 or 20ml glass vials. A nonionic surfactant (Kinetic®) was included in the solution at a volume of 0.01% (v/v). The vials were then inserted into an automated electrostatic sprayer equipped with an atomizing nozzle for application to plants/insects. Lima bean plants (variety Sieva) were grown 2 plants to a pot and selected for treatment at the 1st true leaf stage. Test solutions were sprayed onto the foliage by an auto-mated electrostatic plant sprayer equipped with an atomizing spray nozzle. The plants were dried in the sprayer fume hood and then removed from the sprayer. Each pot was placed into perforated plastic bags with a zip closure. Ten to 11 armyworm larvae were placed into the bag and the bags zipped closed. Test plants were maintained in a growth room at about 25°C and about 20-40% relative humidity for 4 days, avoiding direct exposure to fluorescent light (14:10 light:dark photoperiod) to prevent trapping of heat inside the bags. Mortality and reduced feeding were assessed 4 days after treatment, compared to untreated control plants.

[2] = test system: Green Peach Aphid (Myzus persicae); experiment: Green peach aphid systemic test, artificial diet in microtiter plates; conditions: 72 h, adult aphids, 3 days, in comparison with untreated controls
Description: For evaluating control of green peach aphid (Myzus persicae) through systemic means the test unit consisted of 96-well-microtiter plates containing liquid artificial diet under an artificial mem brane.
The compounds were formulated using a solution containing 75% v/v water and 25% v/v DMSO. Different concentrations of formulated compounds were pipetted into the aphid diet, using a custom built pipetter, at two replications.
After application, 5-8 adult aphids were placed on the artificial membrane inside the microtiter plate wells. The aphids were then allowed to suck on the treated aphid diet and incubated at about 23 ± 1°C and about 50 ± 5 % relative humidity for 3 days. Aphid mortality and fecundity was then visually assessed.

[3] = test system: Tobacco budworm (Heliothis virescens); experiment: Tobacco budworm insect diet test in microtiter plates; conditions: 120 h, egg and larval mortality, 5 days, in comparison with untreated controls
Experimental: For evaluating control of tobacco budworm (Heliothis virescens) the test unit consisted of 96-well-microtiter plates containing an insect diet and 15-25 H. virescens eggs.
The compounds were formulated using a solution containing 75% v/v water and 25% v/v DMSO. Different concentrations of formulated compounds were sprayed onto the insect diet at 10 µl using a custom-built micro atomizer, at two replications.
After application, microtiter plates were incubated at about 28 ± 1°C and about 80 ± 5 % relative humidity for 5 days. Egg and larval mortality was then visually assessed.

[4] = test system: Diamond back moth (Plutella xylostella); experiment: Diamond back moth leaf-dip test on cabbage leaves; conditions: 3rd instar larvae, 72 hours after treatment, in comparison with untreated controls
Experimental: The active compound was dissolved at the desired concentration in a mixture of 1:1 (vol:vol) distilled water: acetone. Surfactant (Kinetic HV) was added at a rate of 0.01% (vol/vol). The test solution was prepared on the day of use.
Leaves of cabbage were dipped in test solution and air-dried. Treated leaves were placed in petri dishes lined with moist filter paper and inoculated with ten 3rd instar larvae. Mortality was recorded 72 hours after treatment. Feeding damages were also recorded using a scale of 0-100%.

[5] = test system: Boll weevil (Anthonomus grandis); experiment: Boll weevil insect diet test in microtiter plates; conditions: 120 h, egg and larval mortality, 5 days, in comparison with untreated controls
Experimental: For evaluating control of boll weevil (Anthonomus grandis) the test unit consisted of 96-well-microtiter plates containing an insect diet and 5-10 A. grandis eggs.
The compounds were formulated using a solution containing 75% v/v water and 25% v/v DMSO. Different concentrations of formulated compounds were sprayed onto the insect diet at 5µl, using a custom-built micro atomizer, at two replications.
After application, microtiter plates were incubated at about 25 ± 1°C and about 75 ± 5 % relative humidity for 5 days. Egg and larval mortality was then visually assessed.

[6] = test system: Orchid thrips (Dichromothrips corbetti); experiment: Orchid thrips floral-immersion test; conditions: adult thrips, 72 hours after treatment, in comparison with untreated controls
Experimental: Dichromothrips corbetti adults used for bioassay were obtained from a colony maintained continuously under laboratory conditions. For testing purposes, the test compound is diluted in a 1:1 mixture of acetone:water (vol:vol), plus Kinetic HV at a rate of 0.01% v/v.
Thrips potency of each compound was evaluated by using a floral-immersion technique. All petals of individual, intact orchid flowers were dipped into treatment solution and allowed to dry in Petri dishes. Treated petals were placed into individual re-sealable plastic along with about 20 adult thrips. All test arenas were held under continuous light and a temperature of about 28°C for duration of the assay. After 3 days, the numbers of live thrips were counted on each petal. The percent mortality was recorded 72 hours after treatment.

Cc1nc(-c2nccnc2C(C)NC(=O)c2cc(C(F)(F)F)cc(C(F)(F)F)c2)no1 (stereo not drawn) [I-1, N-[1-[3-(5-methyl-1,2,4-oxadiazol-3-yl)pyrazin-2-yl]ethyl]-3,5-bis(trifluoromethyl)benzamide]
≥ 75%: mortality at 300 ppm [1] | mortality at 2500 ppm [2] | mortality at 2500 ppm [3] | mortality at 300 ppm [4] | mortality at 2500 ppm [5]

CCN(C)C(=O)c1nc(-c2nccnc2C(C)NC(=O)c2cc(C(F)(F)F)cc(C(F)(F)F)c2)no1 (stereo not drawn) [I-2, 3-[3-[1-[[3,5-bis(trifluoromethyl)benzoyl]amino]ethyl]pyrazin-2-yl]-N-ethyl-N-methyl-1,2,4-oxadiazole-5-carboxamide]
≥ 75%: mortality at 2500 ppm [3] | mortality at 300 ppm [4] | mortality at 2500 ppm [5]

Cc1nc(-c2nccnc2C(C)N(CC2CC2)C(=O)c2cc(C(F)(F)F)cc(C(F)(F)F)c2)no1 (stereo not drawn) [I-3, N-(cyclopropylmethyl)-N-[1-[3-(5-methyl-1,2,4-oxadiazol-3-yl)pyrazin-2-yl]ethyl]-3,5-bis(trifluoromethyl)benzamide]
≥ 75%: mortality at 300 ppm [1] | mortality at 2500 ppm [2] | mortality at 300 ppm [4] | mortality at 2500 ppm [5] | mortality at 300 ppm [6]

CNC(=O)c1nc(-c2nccnc2C(C)N(CC2CC2)C(=O)c2cc(C(F)(F)F)cc(C(F)(F)F)c2)no1 (stereo not drawn) [I-4, 3-[3-[1-[[3,5-bis(trifluoromethyl)benzoyl]-(cyclopropylmethyl)amino]ethyl]pyrazin-2-yl]-N-methyl-1,2,4-oxadiazole-5-carboxamide]
≥ 75%: mortality at 2500 ppm [3] | mortality at 2500 ppm [5]
